Assay results as given in publication PMC4476725 (PLoS Pathogens, 2015).
Read-outs that look alike come from different tables or passages of the source.

How the values were obtained:
[1] = target: RSV RNP complex (Human respiratory syncytial virus A, UniProt P28887); assay: biochemical; assay type: biochemical; conditions: for IC50: read-out: RSV polymerase inhibition class (IC50, RSV RNP complex)
[2] = target: T1, wild-type RSV L-P RNA polymerase complex (Human respiratory syncytial virus A, UniProt P28887); assay type: biochemical
T1 construct: made in house; host or cells: insect cells
T1 sequence (P28887 whole entry): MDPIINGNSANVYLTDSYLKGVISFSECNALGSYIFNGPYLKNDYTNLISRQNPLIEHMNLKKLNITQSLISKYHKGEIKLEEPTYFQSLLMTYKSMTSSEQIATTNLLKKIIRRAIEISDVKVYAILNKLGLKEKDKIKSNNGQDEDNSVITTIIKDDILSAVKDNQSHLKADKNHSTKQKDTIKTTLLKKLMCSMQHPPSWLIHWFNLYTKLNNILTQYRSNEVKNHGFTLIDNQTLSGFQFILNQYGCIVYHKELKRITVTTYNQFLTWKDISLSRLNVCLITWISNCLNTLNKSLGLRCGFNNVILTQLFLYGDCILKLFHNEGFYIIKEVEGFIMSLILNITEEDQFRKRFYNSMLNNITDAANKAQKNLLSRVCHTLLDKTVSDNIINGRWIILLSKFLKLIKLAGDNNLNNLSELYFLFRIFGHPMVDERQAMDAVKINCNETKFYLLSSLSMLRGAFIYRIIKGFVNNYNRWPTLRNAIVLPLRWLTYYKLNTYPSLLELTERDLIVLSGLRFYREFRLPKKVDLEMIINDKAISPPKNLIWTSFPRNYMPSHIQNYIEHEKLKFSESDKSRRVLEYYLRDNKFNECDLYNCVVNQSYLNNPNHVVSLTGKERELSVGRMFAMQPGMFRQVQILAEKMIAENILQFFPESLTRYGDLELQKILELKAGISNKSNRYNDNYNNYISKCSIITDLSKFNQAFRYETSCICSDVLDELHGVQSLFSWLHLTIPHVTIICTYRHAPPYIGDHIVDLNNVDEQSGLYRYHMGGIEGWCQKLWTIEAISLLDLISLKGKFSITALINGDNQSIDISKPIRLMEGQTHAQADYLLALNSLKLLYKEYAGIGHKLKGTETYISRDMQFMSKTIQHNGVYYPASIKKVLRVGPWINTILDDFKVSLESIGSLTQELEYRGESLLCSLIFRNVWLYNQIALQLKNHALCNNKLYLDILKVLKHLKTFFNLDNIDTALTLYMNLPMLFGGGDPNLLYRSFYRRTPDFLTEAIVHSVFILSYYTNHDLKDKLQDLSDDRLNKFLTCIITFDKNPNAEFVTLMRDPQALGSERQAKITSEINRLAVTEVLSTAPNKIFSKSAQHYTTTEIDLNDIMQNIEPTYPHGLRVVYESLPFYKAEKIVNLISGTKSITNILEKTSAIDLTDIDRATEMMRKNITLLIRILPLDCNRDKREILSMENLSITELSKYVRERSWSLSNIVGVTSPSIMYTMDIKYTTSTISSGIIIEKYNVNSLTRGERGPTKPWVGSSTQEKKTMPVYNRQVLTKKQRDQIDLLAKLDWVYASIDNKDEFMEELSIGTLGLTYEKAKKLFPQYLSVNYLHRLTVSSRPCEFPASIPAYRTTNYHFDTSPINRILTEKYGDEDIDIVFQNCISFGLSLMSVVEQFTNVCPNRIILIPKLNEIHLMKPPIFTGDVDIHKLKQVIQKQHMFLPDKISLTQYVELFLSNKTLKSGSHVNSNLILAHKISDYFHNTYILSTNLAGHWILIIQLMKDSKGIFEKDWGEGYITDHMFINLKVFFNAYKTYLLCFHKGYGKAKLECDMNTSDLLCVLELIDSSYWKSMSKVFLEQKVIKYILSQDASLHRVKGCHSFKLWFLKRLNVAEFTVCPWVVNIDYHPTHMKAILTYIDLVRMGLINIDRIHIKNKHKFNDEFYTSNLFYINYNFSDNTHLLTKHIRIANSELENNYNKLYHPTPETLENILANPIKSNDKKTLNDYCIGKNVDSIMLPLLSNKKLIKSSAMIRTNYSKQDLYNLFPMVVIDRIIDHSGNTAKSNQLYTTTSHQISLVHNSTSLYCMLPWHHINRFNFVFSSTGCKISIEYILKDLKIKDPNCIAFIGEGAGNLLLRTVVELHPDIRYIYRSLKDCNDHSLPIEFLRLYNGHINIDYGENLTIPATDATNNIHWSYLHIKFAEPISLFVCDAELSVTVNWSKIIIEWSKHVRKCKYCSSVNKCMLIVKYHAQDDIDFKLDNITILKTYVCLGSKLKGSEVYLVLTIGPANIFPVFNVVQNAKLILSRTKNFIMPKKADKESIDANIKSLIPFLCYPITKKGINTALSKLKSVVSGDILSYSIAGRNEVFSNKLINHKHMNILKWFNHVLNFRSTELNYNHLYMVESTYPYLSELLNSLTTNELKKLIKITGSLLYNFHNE
T1 sequence (P03421 whole entry, further chain): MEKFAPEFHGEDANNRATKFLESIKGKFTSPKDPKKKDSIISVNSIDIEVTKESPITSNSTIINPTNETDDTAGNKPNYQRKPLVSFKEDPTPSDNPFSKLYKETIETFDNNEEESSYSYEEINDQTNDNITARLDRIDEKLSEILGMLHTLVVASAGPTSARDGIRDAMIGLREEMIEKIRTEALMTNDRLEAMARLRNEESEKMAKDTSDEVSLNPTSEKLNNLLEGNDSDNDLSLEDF

[3] = target: HCV polymerase (Hepatitis C virus genotype 1b, UniProt Q9WMX2); assay: HCV polymerase inhibition assay; assay type: biochemical; conditions: for IC50: read-out: HCV polymerase inhibition class (IC50)
[4] = target: human mitochondrial RNA polymerase (Homo sapiens, UniProt O00411); assay: DdRp assay with human mitochondrial RNA polymerase, single turnover; assay type: biochemical; conditions: 100 μM of each NTP
[5] = test system: influenza strain A/WSN/33 (H1N1); assay: Influenza assay in A549 cells (neuraminidase readout); assay type: cell-based; conditions: Influenza virus, 20h
[6] = test system: RSV B1; assay: RSV inhibition by qRT-PCR in HEp-2 cells, RSV B1 strain; assay type: cell-based; conditions: human respiratory syncytial virus, 120 h, 5 days, n = 3, read-out: EC50, inhibition of RNA replication of RSV B1
[7] = test system: RSV A2; assay: Three-dimensional lung model, primary human tracheal/bronchial epithelial cells infected with RSV A2; assay type: cell-based; conditions: human respiratory syncytial virus, Epithelial cell
[8] = test system: Parainfluenza virus type-3; assay: PIV-3 antiviral assay in A549 cells; assay type: cell-based, human PIV-3 C243 strain; conditions: 168 h, 7 days, qRT-PCR
[9] = test system: HCV replicon; assay: microbe, parasite or virus in culture; assay type: cell-based; conditions: Hepatitis C virus
[10] = test system: RSV A2; assay: RSV inhibition by qRT-PCR in HEp-2 cells, RSV A2 strain; assay type: cell-based; conditions: human respiratory syncytial virus
[11] = in vitro; conditions: human
[12] = test system: A549
[13] = test system: Vesicular stomatitis virus; assay: microbe, parasite or virus in culture; assay type: cell-based; conditions: A549, 48 h
[14] = test system: RSV replicon; assay: RSV subgenomic replicon assay (luciferase); assay type: cell-based, Respiratory syncytial virus
Protocol: The RSV subgenomic replicon (Apath, Brooklyn, NY, USA) was used as previously described. The HeLa-derived cells containing the stable RSV replicon were cultured in DMEM containing 4500 mg/L D-glucose, L-glutamine, and 110 mg/L sodium pyruvate. The medium was further supplemented with 10% (v/v) FBS (Mediatech), 1% (v/v) penicillin/streptomycin (Mediatech), and 10 μg/mL of Blasticidin (BSD) (Invivogen). Cells were maintained at 37°C in a humidified 5% CO2 atmosphere. On the first day, 5000 RSV replicon cells per well were plated in a 96-well plate. On the following day, compounds to be tested were solubilized in 100% DMSO to 100 × the desired final testing concentration. Cells were incubated with compounds for 7 days at 37°C in a 5% CO2 atmosphere before measurement of the luciferase readout. Cell viability (CC50) was measured with a CellTiter-Glo cell proliferation assay (Promega).

[15] = test system: RSV A and B clinical isolates; assay: microbe, parasite or virus in culture; assay type: cell-based; conditions: human respiratory syncytial virus
[16] = target: QUAD-mutant RSV polymerase (Human respiratory syncytial virus A, UniProt P28887, A789V/I796V/L795I/M628L); assay type: cell-based
[17] = in vitro; conditions: human; remark: listed apart in the source
[18] = test system: Rhinovirus 1b; assay: Human rhinovirus assay in HeLa-OHIO cells (CPE); assay type: cell-based; conditions: Enterovirus
[19] = in vitro; conditions: human; remark: listed apart in the source
[20] = in vitro; conditions: human; remark: listed apart in the source
[21] = test system: RSV A2; assay: African Green monkey efficacy model; assay type: in vivo, African Green monkeys (Chlorocebus sabaeus); conditions: oral BID, 200 mg/kg loading then 50 mg/kg, 6 days
[22] = design: method as in PMID 25667954; conditions: cited from earlier work
[23] = target: RSV polymerase QUAD mutant (Human respiratory syncytial virus A, UniProt P28887, A789V/I796V/L795I/M628L); assay: Single nucleotide incorporation by recombinant RSV L-P polymerase, QUAD mutant; assay type: biochemical; conditions: primer extension from the +3 position, n = 2
[24] = HEp-2, Isolate A1997-12-35, RSV A
[25] = HEp-2, Isolate A1998-03-02, RSV A
[26] = HEp-2, Isolate A1998-12-21, RSV A
[27] = HEp-2, Isolate A2000-03-04, RSV A
[28] = HEp-2, Isolate A2001-02-20, RSV A
[29] = HEp-2, Isolate A2001-03-12, RSV A

RSV RNP complex, sequence (P03421 whole entry): as the sequence (P03421 whole entry, further chain) above
RSV RNP complex, sequence (P28887 whole entry): as the sequence (P28887 whole entry) above

## [N-]=[N+]=N[C@]1(COP(=O)(O)OP(=O)(O)OP(=O)(O)O)O[C@@H](n2ccc(N)nc2=O)[C@H](O)[C@@H]1O [4'N3-CTP, reference compound]
[1]; Fig 5B
  inhibition of RSV RNP complex (in words): dual RSV/HCV polymerase inhibitors
[1]; first symbol of RSV / HCV
  IC50: 0.1 to 10 µM
[2]
  substrate and chain termination profile with recombinant RSV polymerase (in words): both substrates and chain terminators
[3]; Fig 5B
  inhibition of HCV polymerase (in words): dual RSV/HCV polymerase inhibitors
[3]; second symbol of RSV / HCV
  IC50: < 0.1 µM
[4]
  recognition as substrate by human mitochondrial RNA polymerase (in words): efficiently incorporated

## Nc1ccn([C@@H]2O[C@@](CO)(CCl)[C@@H](O)[C@H]2F)c(=O)n1 [ALS-8112, 2'-fluoro-4'-chloromethyl (2'F-4'ClCH2) cytidine]
[5]
  EC50: > 100 µM
[6]
  EC50: 0.132 ± 0.055 µM
[7]; Disease: Asthma, read-out: EC50
  EC50: 0.73 µM
[7]; Disease: Asthma, read-out: EC90
  EC90: 2.7 µM
[7]; donor one, Disease: None, read-out: EC50
  EC50: 0.37 µM
[7]; donor one, Disease: None, read-out: EC90
  EC90: 2.7 µM
[7]; donor two, Disease: None, read-out: EC50
  EC50: 0.09 µM
[7]; donor two, Disease: None, read-out: EC90
  EC90: 1.3 µM
[7]; range over human donor cells (n = 3), read-out: EC50, RSV RNA replication in donor cells
  EC50: 0.09 to 0.73 µM
[7]; range over human donor cells (n = 3), read-out: EC90, RSV RNA replication in donor cells
  EC90: 1.3 to 2.7 µM
[8]
  EC50: 1.3 µM
[9]; Huh-7, HCV replicon, read-out: HCV EC50
  EC50: > 100 µM
[9]; Huh-7 replicon, read-out: EC50
  EC50: > 100 µM
[10]; 120 h, HEp-2 cells, 5 days, qRT-PCR, n = 3, read-out: EC50, inhibition of RNA replication of RSV A2
  EC50: 0.153 ± 0.076 µM
[10]; HEp-2, read-out: EC50
  EC50: 0.15 µM
[11]
  CC50: > 100 µM
[12]; A549 cells, Influenza virus row
  CC50: > 100 µM
[12]; human
  CC50: > 100 µM
[13]
  EC50: 3.4 µM
[14]; human respiratory syncytial virus, RSV replicon
  EC50: 0.15 µM
[15]; HEp-2, Isolate 1144, RSV B
  EC50: 0.29 ± 0.02 µM
  EC90: 1.47 ± 0.22 µM
[15]; HEp-2, Isolate 1262, RSV B
  EC50: 0.11 ± 0.03 µM
  EC90: 2.18 ± 0.27 µM
[15]; HEp-2, Isolate 9320, RSV B
  EC50: 0.09 ± 0.03 µM
  EC90: 0.96 ± 0.16 µM
[15]; HEp-2, Isolate 18537, RSV B
  EC50: 0.21 ± 0.06 µM
  EC90: 0.99 ± 0.22 µM
[15]; [24]
  EC50: 0.18 ± 0.04 µM
  EC90: 2.46 ± 0.15 µM
[15]; [25]
  EC50: 0.26 ± 0.06 µM
  EC90: 2.15 ± 0.27 µM
[15]; [26]
  EC50: 0.09 ± 0.02 µM
  EC90: 1.11 ± 0.54 µM
[15]; [27]
  EC50: 0.18 ± 0.02 µM
  EC90: 2.18 ± 0.24 µM
[15]; [28]
  EC50: 0.1 ± 0.01 µM
  EC90: 1.1 ± 0.53 µM
[15]; [29]
  EC50: 0.45 ± 0.07 µM
  EC90: 2.33 ± 0.35 µM
[15]; HEp-2, Isolate Pep 121, RSV B
  EC50: 0.32 ± 0.07 µM
  EC90: 2.07 ± 0.43 µM
[16]
  maximum inhibition, QUAD-mutant minigenome: about 60%
[17]
  CC50: > 100 µM
[18]
  EC50: > 100 µM
[19]
  CC50: > 100 µM
[20]
  CC50: > 100 µM

## Nc1ccn([C@@H]2O[C@](CCl)(CI)[C@@H](O)[C@H]2F)c(=O)n1 [ALS-8112-I, 4’-Chloromethyl-2’,5’-dideoxy-2’-fluoro-5’-iodocytidine]
[14]
  inhibition of luciferase activity in the RSV replicon (in words): did not significantly inhibit

## CC(C)C(=O)OC[C@@]1(CCl)O[C@@H](n2ccc(N)nc2=O)[C@H](F)[C@@H]1OC(=O)C(C)C [ALS-8176, 4'-chloromethyl-2'-deoxy-3',5'-di-O-isobutyryl-2'-fluorocytidine]
[21]; end of treatment
  difference in RSV RNA titers, vehicle vs treated, BAL: > 4 log10 copies/mL
  difference in RSV RNA titers, vehicle vs treated, nasopharyngeal (NP) swab: about 3 log10 copies/mL
[21]; end of treatment (Day 5 post-infection), all four animals, LOD 50 copies/mL
  RSV RNA titer in bronchoalveolar lavage (BAL) samples: < 50 copies/mL
[22]
  oral bioavailability: high

## C[C@@]1(F)[C@H](O)[C@@H](COP(=O)(O)OP(=O)(O)OP(=O)(O)O)O[C@H]1n1ccc(N)nc1=O [mericitabine-TP, 2'F-2'Me-CTP, reference compound]
[1]; first symbol of RSV / HCV
  IC50: > 10 µM
[2]; Fig 5A
  substrate and chain termination profile with recombinant RSV polymerase (in words): almost completely inactive
[2]; Km CTP analog / Km CTP
  discrimination relative to natural CTP, WT RSV polymerase: greater than 5,000 fold
[2]; at a concentration of 300 μM
  level of incorporation by RSV polymerase: less than 20%
[3]; second symbol of RSV / HCV
  IC50: < 0.1 µM

## cytidine triphosphate [CTP, reference compound]
[23]
  Km: 0.056 ± 0.01 µM
[1]
  IC50: > 10 µM
[2]; primer extension from the +3 position, read-out: Km, single nucleotide incorporation, WT RSV L-P
  Km: 0.057 ± 0.009 µM
[3]
  IC50: > 10 µM
